Data from patent publication US12318365B2, “Inhibition of dipeptide repeat proteins” (ALS Therapy Development Institute, priority 2019, dated 2025).
No end group written: not given here.

Tested on: NSC-34 cells
Test: Caspase-3 assay (apoptotic activity) in NSC-34 cells
Type: cell-based
Details: for DRP-induced apoptotic activity: DRP 0.01-3 μM, 24 h, compared to DMSO-treated controls
Source text: Caspase-3/CPP32 Assay: The caspase-3 assay is a fluorometric assay that measures apoptotic cell death. Apoptosis is a form of “programmed” cell death, in which a certain family of proteins inside the cell triggers a cascade of chemical reactions that result in the cell killing itself. One family of proteins involved in this process is the caspase protein family. Of the caspase proteins, caspase-2, 8, 9, and 10 are known as “initiators,” those that trigger the death cascade, and caspase-3, 6, and 7 are known as “executioners,” which carry out the actual killing of the cell. In a caspase-3 assay, cells treated with test compounds are lysed, and a substrate known as DEVD-AFC is added to the lysate. If active caspase-3 enzyme is present in the lysate, it will cleave AFC from the DEVD-AFC substrate, resulting in a fluorescent signal that can be quantified using a fluorescence microtiter plate reader. Thus, the apoptotic activity of cells treated with test compounds can be quantified. Greater fluorescence readings correspond to more apoptotic cell death.
Cells were plated in culture medium in 2 96-well plates at a density of 3.7×10^4 cells per well, and incubated overnight at 37° C., 5% CO2. The following day, immediately prior to addition of test compounds, existing culture medium was removed and replaced with staggered volumes of culture medium as in Example 1. A 10 mM stock of MS023 was thawed to room temperature and diluted as in Example 1. A 10 mM stock of GR15 (SEQ ID NO: 1) and a 10 mM stock of PR15 (SEQ ID NO: 2) were equilibrated to room temperature and diluted in warm culture medium to achieve a final concentration of 300 nM in wells.
The following conditions were plated in triplicate. Samples were surrounded by border wells on the outside of the plate filled with sterile Phosphate-buffered saline to prevent evaporation of volume in experimental wells during incubation; • Background (Culture medium only) • Untreated/“Cells Only” (Cells in culture medium) • DMSO Control (Cells treated only with the amount of DMSO that GR- and PR-treated cells were exposed to) • GR Only (Cells treated only with 300 nM GR15) (SEQ ID NO: 1) • Cells treated with […] GR15 (SEQ ID NO: 1) and one of the following doses of MS023: 60 μM, 30 μM, 10 μM, 3 μM, 1 μM. • PR Only (Cells treated only with 300 nM PR15) (SEQ ID NO: 2) • Cells treated with 300 nM PR15 (SEQ ID NO: 2) and one of the following doses of MS023: 60 μM, 30 μM, 10 μM, 3 μM, 1 μM. • Cells treated with only one of the following doses of MS023: 60 μM, 30 μM, 10 μM, 3 μM, 1 μM. • Positive controls (Cells treated with either 5 or 16 μM PAC-1 Caspase-3 activator)
Plates were incubated for 24 h at 37° C., 5% CO2. Cells were tested and data were analyzed using the procedure detailed in Caspase-3 assay kit instructions.
Cells were plated in culture medium in 2 96-well plates at a density of 3.7×10^4 cells per well, and incubated overnight at 37° C., 5% CO2. The following day, immediately prior to addition of test compounds, existing culture medium was removed and replaced with staggered volumes of culture medium as in Example 1. A 10 mM stock of MS023 was thawed to room temperature and diluted in warm culture medium to achieve final concentrations of 3, 1, 0.3, 0.1, 0.03, and 0.01 μM in plate. A 10 mM stock of GR15 (SEQ ID NO: 1) and a 10 mM stock of PR15 (SEQ ID NO: 2) were equilibrated to room temperature and diluted in warm culture medium to achieve a final concentration of 3 μM in wells.
The following conditions were plated in triplicate. […]

Row | Molecule | dose dependence of abrogation of GR-induced apoptotic activity (300 nM GR15, 24 h, MS023 1-60 μM) | abrogation of GR-induced apoptotic activity (300 nM GR15, 24 h, doses 3 and 1 μM) | abrogation of GR-induced apoptotic activity (300 nM GR15, 24 h, doses 60, 30 and 10 μM) | dose dependence of abrogation of PR-induced apoptotic activity (300 nM PR15, 24 h, MS023 1-60 μM) | abrogation of PR-induced apoptotic activity (300 nM PR15, 24 h, all doses (1-60 μM)) | dose dependence of abrogation of GR-induced apoptotic activity (3 μM GR15, 24 h, MS023 0.01-3 μM) | abrogation of GR-induced apoptotic activity (3 μM GR15, 24 h, all doses (0.01-3 μM)) | abrogation of GR-induced apoptotic activity (3 μM GR15, 24 h, dose 3 μM) | dose dependence of abrogation of PR-induced apoptotic activity (3 μM PR15, 24 h, MS023 0.01-3 μM) | abrogation of PR-induced apoptotic activity (3 μM PR15, 24 h, all doses (0.01-3 μM)) | abrogation of PR-induced apoptotic activity (3 μM PR15, 24 h, dose 3 μM) | DRP-induced apoptotic activity
1 | CC(C)Oc1ccc(-c2c[nH]cc2CN(C)CCN)cc1 [MS023] | dose-dependently | fully abrogated | partially abrogated | dose-dependently | fully abrogated | dose-dependently abrogated | partially abrogated | fully abrogated | dose-dependently abrogated | partially abrogated | fully abrogated | –
2 | GRGRGRGRGRGRGRGRGRGRGRGRGRGRGR [GR15] | – | – | – | – | – | – | – | – | – | – | – | producing the most significant amount of apoptotic activity
3 | PRPRPRPRPRPRPRPRPRPRPRPRPRPRPR [PR15] | – | – | – | – | – | – | – | – | – | – | – | producing the most significant amount of apoptotic activity
